# Reference: patent publication US10316211B2, “Stabilizer and coating compositions thereof” (SWIMC LLC, priority 2012, dated 2019)
# Target: T1, human estrogen receptor (Homo sapiens, UniProt P03372)
# T1 sequence (P03372 1-595): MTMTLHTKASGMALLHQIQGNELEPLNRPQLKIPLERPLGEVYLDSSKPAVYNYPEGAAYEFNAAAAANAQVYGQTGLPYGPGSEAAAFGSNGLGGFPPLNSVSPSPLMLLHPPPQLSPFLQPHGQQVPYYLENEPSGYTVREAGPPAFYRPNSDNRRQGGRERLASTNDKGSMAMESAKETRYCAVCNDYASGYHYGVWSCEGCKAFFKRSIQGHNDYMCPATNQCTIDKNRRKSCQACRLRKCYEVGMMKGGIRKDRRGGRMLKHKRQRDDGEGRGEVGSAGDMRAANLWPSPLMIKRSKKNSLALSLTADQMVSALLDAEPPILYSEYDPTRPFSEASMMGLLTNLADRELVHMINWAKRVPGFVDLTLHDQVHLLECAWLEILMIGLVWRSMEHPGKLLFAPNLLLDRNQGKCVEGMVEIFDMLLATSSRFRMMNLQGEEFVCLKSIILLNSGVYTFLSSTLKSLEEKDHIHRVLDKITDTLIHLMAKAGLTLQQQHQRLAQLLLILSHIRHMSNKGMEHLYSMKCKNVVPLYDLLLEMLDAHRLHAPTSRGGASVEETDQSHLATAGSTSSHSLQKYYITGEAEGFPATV
# Assay: suitable in vitro assay whose results correlate with the MCF-7 assay (estrogenic activity)
# Conditions: in vitro assay correlated to MCF-7 assay through common reference compounds
row,Compound,estrogenic activity
1,"Cc1cc(Cc2cc(C)c(O)c(C)c2)cc(C)c1O [Structure 6, 4,4′-methylenebis(2,6-dimethylphenol)]",do not exhibit appreciable estrogenic activity
2,"CCCC(c1cc(C(C)(C)C)c(O)cc1C)c1cc(C(C)(C)C)c(O)cc1C [Structure 7, 4,4′-butylidenebis(2-t-butyl-5-methylphenol)]",do not exhibit appreciable estrogenic activity
3,"CC(C)(C)c1cc(Cc2cc(C(C)(C)C)c(O)c(C(C)(C)C)c2)cc(C(C)(C)C)c1O [Structure 8, 4,4′-methylenebis(2,6-di-t-butylphenol)]",do not exhibit appreciable estrogenic activity
4,Cc1cc(Cc2cc(C)cc(C(C)(C)C)c2O)c(O)c(C(C)(C)C)c1 [Structure 9],do not exhibit appreciable estrogenic activity
5,"CC(C)(C)c1cc(O)c(C(C)(C)C)cc1O [Structure 12, 2,5-di-t-butylhydroquinone]",do not exhibit appreciable estrogenic activity

# Tested on: MCF-7, clone WS8 cells
# Assay: MCF-7 cell proliferation assay of estrogenic activity
# Type: cell-based, human
# Conditions: log10 of Relative Proliferative Effect (EC50 ratio versus 17-beta estradiol times 100); b102 calls the values expected or measured
# Description: The MCF-7 assay is a useful test for assessing whether a polyhydric phenol compound is appreciably non-estrogenic. The MCF-7 assay uses MCF-7, clone WS8 cells to measure whether and to what extent a substance induces cell proliferation via estrogen receptor (ER)-mediated pathways. The method is described in “Test Method Nomination: MCF-7 Cell Proliferation Assay of Estrogenic Activity” submitted for validation by CertiChem, Inc. to the National Toxicology Program Interagency Center for the Evaluation of Alternative Toxicological Methods (NICEATM) on Jan. 19, 2006 (available online at iccvam.niehs.nih.gov/methods/endocrine/endodocs/SubmDoc.pdf).
# A brief summary of the method of the aforementioned MCF-7 assay is provided below. MCF-7, clone WS8 cells are maintained at 37° C. in RMPI (Roswell Park Memorial Institute medium) containing Phenol Red (e.g., GIBCO Catalog Number 11875119) and supplemented with the indicated additives for routine culture. An aliquot of cells maintained at 37° C. are grown for two days in phenol-free media containing 5% charcoal stripped fetal bovine serum in a 25 cm^2 tissue culture flask. Using a robotic dispenser such as an EPMOTION™ 5070 unit, MCF-7 cells are then seeded at 400 cells per well in 0.2 ml of hormone-free culture medium in Corning 96-well plates. The cells are adapted for 3 days in the hormone-free culture medium prior to adding the chemical to be assayed for estrogenic activity. The media containing the test chemical is replaced daily for 6 days. At the end of the 7 day exposure to the test chemical, the media is removed, the wells are washed once with 0.2 ml of HBSS (Hanks' Balanced Salt Solution), and then assayed to quantify amounts of DNA per well using a micro-plate modification of the Burton diphenylamine (DPA) assay, which is used to calculate the level of cell proliferation.
# RPE is the ratio between the EC50 of the test chemical and the EC50 of the control substance 17-beta estradiol times 100, where EC50 is “effective concentration 50%” or half-maximum stimulation concentration for cell proliferation measured as total DNA in the MCF-7 assay.
row,Compound,Log RPE
1,C[C@]12CC[C@@H]3c4ccc(O)cc4CC[C@H]3[C@@H]1CC[C@@H]2O [17β-estradiol],2.00
2,Oc1ccc(Cc2ccc(O)cc2)cc1 [Bisphenol F],−2
3,O=S(=O)(c1ccc(O)cc1)c1ccc(O)cc1 [Bisphenol S],−2
4,Oc1ccccc1Cc1ccccc1O [Structure 11],less than −4
5,CC(C)(C)c1cc(O)c(C(C)(C)C)cc1O [Structure 12],less than −4
